Source: the NIST ThermoML archive (doi:10.1021/je900387e)
Numbers after ± are expanded uncertainties.

Assay: xn = mol fraction of the nth substance listed
Settings: Liquid, Pycnometric method

CCCCCl [1-chlorobutane] + O=C=O
Settings	mass density [kg/m3]
322.7 K, 8980 kPa, x1 = 0.0243	377 ± 4
322.7 K, 8990 kPa, x1 = 0.0744	690 ± 4
322.7 K, 9050 kPa, x1 = 0.0243	387 ± 4
322.7 K, 9110 kPa, x1 = 0.0243	397 ± 4
322.7 K, 9120 kPa, x1 = 0.0981	754 ± 4
322.7 K, 9140 kPa, x1 = 0.0744	698 ± 4
322.7 K, 9170 kPa, x1 = 0.0243	407 ± 4
322.7 K, 9240 kPa, x1 = 0.0243	418 ± 4
322.7 K, 9280 kPa, x1 = 0.1488	802 ± 4
322.7 K, 9290 kPa, x1 = 0.0744	705 ± 4
322.7 K, 9300 kPa, x1 = 0.0981	759 ± 4
322.7 K, 9320 kPa, x1 = 0.0243	430 ± 4
322.7 K, 9390 kPa, x1 = 0.0243	443 ± 4
322.7 K, 9470 kPa, x1 = 0.0243	456 ± 4
322.7 K, 9470 kPa, x1 = 0.0744	713 ± 4
322.7 K, 9500 kPa, x1 = 0.0981	764 ± 4
322.7 K, 9560 kPa, x1 = 0.0243	470 ± 4
322.7 K, 9600 kPa, x1 = 0.1488	807 ± 4
322.7 K, 9630 kPa, x1 = 0.0243	482 ± 4
322.7 K, 9700 kPa, x1 = 0.0243	494 ± 4
322.7 K, 9700 kPa, x1 = 0.0744	721 ± 4
322.7 K, 9720 kPa, x1 = 0.0981	769 ± 4
322.7 K, 9740 kPa, x1 = 0.0243	501 ± 4
322.7 K, 9790 kPa, x1 = 0.0243	507 ± 4
322.7 K, 9810 kPa, x1 = 0.0243	510 ± 4
322.7 K, 9940 kPa, x1 = 0.0744	729 ± 4
322.7 K, 9950 kPa, x1 = 0.1488	811 ± 4
322.7 K, 10080 kPa, x1 = 0.0981	777 ± 4
322.7 K, 10210 kPa, x1 = 0.0744	738 ± 4
322.7 K, 10310 kPa, x1 = 0.1488	815 ± 4
322.7 K, 10480 kPa, x1 = 0.0981	785 ± 4
322.7 K, 10520 kPa, x1 = 0.0744	746 ± 4
322.7 K, 10730 kPa, x1 = 0.1488	820 ± 4
322.7 K, 10870 kPa, x1 = 0.0744	755 ± 4
322.7 K, 10920 kPa, x1 = 0.0981	792 ± 4
322.7 K, 11110 kPa, x1 = 0.1488	823 ± 4
322.7 K, 11230 kPa, x1 = 0.0744	764 ± 4
322.7 K, 11440 kPa, x1 = 0.0981	802 ± 4
322.7 K, 11540 kPa, x1 = 0.1488	828 ± 4
322.7 K, 11680 kPa, x1 = 0.0744	773 ± 4
322.7 K, 12000 kPa, x1 = 0.0981	810 ± 4
322.7 K, 12020 kPa, x1 = 0.1488	832 ± 4
322.7 K, 12170 kPa, x1 = 0.0744	782 ± 4
322.7 K, 12270 kPa, x1 = 0.1488	835 ± 4
322.7 K, 12520 kPa, x1 = 0.1488	837 ± 4
322.7 K, 12600 kPa, x1 = 0.0981	818 ± 4
322.7 K, 12720 kPa, x1 = 0.0744	792 ± 4
322.7 K, 12780 kPa, x1 = 0.1488	839 ± 4
322.7 K, 13030 kPa, x1 = 0.0981	824 ± 4
322.7 K, 13270 kPa, x1 = 0.1488	844 ± 4
322.7 K, 13320 kPa, x1 = 0.0744	802 ± 4
322.7 K, 13530 kPa, x1 = 0.0981	830 ± 4
322.7 K, 13570 kPa, x1 = 0.1488	846 ± 4
322.7 K, 13850 kPa, x1 = 0.1488	849 ± 4
322.7 K, 14020 kPa, x1 = 0.0744	812 ± 4
322.7 K, 14030 kPa, x1 = 0.0981	836 ± 4
322.7 K, 14170 kPa, x1 = 0.1488	851 ± 4
322.7 K, 14470 kPa, x1 = 0.1488	853 ± 4
322.7 K, 14590 kPa, x1 = 0.0981	843 ± 4
322.7 K, 14600 kPa, x1 = 0.0744	820 ± 4
322.7 K, 14740 kPa, x1 = 0.1488	856 ± 4
322.7 K, 14960 kPa, x1 = 0.0744	824 ± 4
322.7 K, 15170 kPa, x1 = 0.0981	849 ± 4
322.7 K, 15190 kPa, x1 = 0.0744	828 ± 4
324 K, 9110 kPa, x1 = 0.0483	519 ± 4
324 K, 9140 kPa, x1 = 0.0483	527 ± 4
324 K, 9190 kPa, x1 = 0.0483	537 ± 4
324 K, 9250 kPa, x1 = 0.0483	546 ± 4
324 K, 9310 kPa, x1 = 0.0483	556 ± 4
324 K, 9370 kPa, x1 = 0.0483	566 ± 4
324 K, 9450 kPa, x1 = 0.0483	576 ± 4
324 K, 9540 kPa, x1 = 0.0483	587 ± 4
324 K, 9630 kPa, x1 = 0.0483	599 ± 4
324 K, 9750 kPa, x1 = 0.0483	611 ± 4
324 K, 9850 kPa, x1 = 0.0483	620 ± 4
324 K, 10010 kPa, x1 = 0.0483	633 ± 4
324 K, 10200 kPa, x1 = 0.0483	646 ± 4
324 K, 10420 kPa, x1 = 0.0483	660 ± 4
324 K, 10690 kPa, x1 = 0.0483	674 ± 4
324 K, 11030 kPa, x1 = 0.0483	689 ± 4
324 K, 11440 kPa, x1 = 0.0483	705 ± 4
324 K, 11960 kPa, x1 = 0.0483	721 ± 4
324 K, 12550 kPa, x1 = 0.0483	738 ± 4
324 K, 13030 kPa, x1 = 0.0483	749 ± 4
